In patent publication US10421718B2, “EBNA1 inhibitors and their method of use” (priority 2013, dated 2019) one finds IC50 data, which are given here for 46 compounds.

pIC50: −log10 of the molar value. Where a name gives a salt, the structure may show the parent alone.

The target in the assay is T1, His-EBNA1 (DNA binding domain of EBNA1, amino acids 459-607) (Epstein-Barr virus, UniProt P03211).
T1 construct: made in house; host or cells: E. coli
T1 sequence (P03211 459-607): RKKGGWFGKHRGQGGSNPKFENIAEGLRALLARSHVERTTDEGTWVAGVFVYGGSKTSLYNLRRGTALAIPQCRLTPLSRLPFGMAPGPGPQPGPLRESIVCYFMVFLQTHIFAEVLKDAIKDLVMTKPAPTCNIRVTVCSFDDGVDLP
The assay is described as follows: Inhibition of 5′-biotin-oPL4624 binding to His-EBNA1 using Alpha Screen technology. Conditions: Alpha Screen Activity (IC50, inhibition of 5′-biotin-oPL4624 binding to His-EBNA1), 15 nM His-EBNA1, 0.2 nM bt-oPL4624, 2 hr room temperature. In short, it runs like this:
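His-tagged EBNA1 DNA-binding domain (aa 459-607, E. coli-expressed) at 15 nM with 0.2 nM biotinylated self-complementary oligo, streptavidin donor and nickel acceptor beads, in 25 mM Tris pH 7.2, 160 mM NaCl, 1 mM MgCl2. Compound 3.2 nM-100 μM final; AlphaScreen read after 2 h at room temperature, one-site dose-response fit.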
With `Cn1cc(C#Cc2cccc(C(=O)O)c2-n2cccc2)cn1` [Entry 24, 3-[2-(1-methyl-1H-pyrazol-4-yl)ethynyl]-2-(1H-pyrrol-1-yl)benzoic acid], the negative-log IC50 (pIC50) (usually −log10 of the IC50, conventionally taken in molar units) is 5.00 to 6.00.
As for `O=C(O)c1cccc(C#Cc2ccncc2)c1-c1ccc2cc[nH]c2c1` [Entry 259, 2-(1H-indol-6-yl)-3-[2-(pyridin-4-yl)ethynyl]benzoic acid; trifluoroacetate salt], the figure is 5.00 to 6.00.
Next, `CN(C)Cc1ccc(-c2c(C#Cc3ccccc3)cccc2C(=O)O)cc1` [Entry 207, 4′-dimethylaminomethyl-6-phenylethynyl-biphenyl-2-carboxylic acid]: 3.00 to 4.00.
As to `CCCCC(CC)C(O)C#Cc1cccc(C(=O)O)c1-n1cccc1` (stereo not shown) [Entry 55, 3-(4-ethyl-3-hydroxyoct-1-yn-1-yl)-2-(1H-pyrrol-1-yl)benzoic acid], the negative-log IC50 (pIC50) was above 6.00.
As to `O=C(O)c1cccc(C#Cc2ccccc2)c1-c1ccc2ccccc2c1` [Entry 135, 2-(naphthalen-2-yl)-3-(2-phenylethynyl)benzoic acid], the pIC50 was 5.00 to 6.00.
Next, `O=C(O)c1cccc(C#Cc2ccncc2)c1-n1cccc1` [Entry 68, 3-[2-(pyridin-4-yl)ethynyl]-2-(1H-pyrrol-1-yl)benzoic acid]: above 6.00.
As for `Nc1ncc(-c2c(C#Cc3ccccc3)cccc2C(=O)O)cn1` [Entry 206, 2-(2-amino-pyrimidin-5-yl)-3-phenylethynyl-benzoic acid], the figure is 3.00 to 4.00; as for `O=C(O)c1cccc(C#Cc2cnc3cnccn23)c1-n1cccc1` [Entry 11, 3-(2-{imidazo[1,2-a]pyrazin-3-yl}ethynyl)-2-(1H-pyrrol-1-yl)benzoic acid], above 6.00; as for `O=C(O)c1cccc(C#Cc2cscn2)c1-c1ccncc1` [Entry 172], 4.00 to 5.00.
As for `O=C(O)c1cccc(C#Cc2ccc3cn[nH]c3c2)c1-n1cccc1` [Entry 8, 3-[2-(1H-indazol-6-yl)ethynyl]-2-(1H-pyrrol-1-yl)benzoic acid], the figure is 5.00 to 6.00; as for `O=C(O)c1cccc(C#Cc2ccccc2CO)c1-n1cccc1` [Entry 19, 3-{2-[2-(hydroxymethyl)phenyl]ethynyl}-2-(1H-pyrrol-1-yl)benzoic acid], above 6.00; as for `Cc1ccc(C)n1-c1c(C#Cc2ccccc2)cccc1C(=O)O` [Entry 50, 2-(2,5-dimethyl-1H-pyrrol-1-yl)-3-(2-phenylethynyl)benzoic acid], above 6.00.
As to `O=C(O)c1cccc(C#Cc2cn3ccnc3cn2)c1-n1cccc1` [Entry 56, 3-(2-{imidazo[1,2-a]pyrazin-6-yl}ethynyl)-2-(1H-pyrrol-1-yl)benzoic acid], the pIC50 is above 6.00.
Next, `O=C(O)c1cccc(C#Cc2ccc3ccsc3c2)c1-n1cccc1` [Entry 17, 3-[2-(1-benzothiophen-6-yl)ethynyl]-2-(1H-pyrrol-1-yl)benzoic acid]: 5.00 to 6.00; `O=C(O)c1cccc(C#Cc2ccccc2)c1-c1ccc2cn[nH]c2c1` [Entry 201, 2-(1H-indazol-6-yl)-3-phenylethynyl-benzoic acid]: 4.00 to 5.00.
As for `O=C(O)c1cccc(C#Cc2ccccc2)c1-c1cncnc1` [Entry 100, 3-(2-phenylethynyl)-2-(pyrimidin-5-yl)benzoic acid], the figure is 3.00 to 4.00; as for `O=C(O)c1cccc(C#CC(O)c2ccccc2)c1-n1cccc1` (stereo not shown) [Entry 33, 3-(3-hydroxy-3-phenylprop-1-yn-1-yl)-2-(1H-pyrrol-1-yl)benzoic acid], above 6.00.
`CN1CCOc2cc(-c3c(C#Cc4ccncc4)cccc3C(=O)O)ccc21` [Entry 176, 2-(4-methyl-3,4-dihydro-2H-1,4-benzoxazin-7-yl)-3-[2-(pyridin-4-yl)ethynyl]benzoic acid]: the pIC50 is 4.00 to 5.00.
Next, `COc1ccc(C#Cc2cccc(C(=O)O)c2-c2cnc3ccccc3c2)cc1` [Entry 142, 3-((4-methoxyphenyl)ethynyl)-2-(quinolin-3-yl)benzoic acid]: 4.00 to 5.00; `O=C(O)c1cccc(C#Cc2cn(S(=O)(=O)c3ccccc3)c3ccccc23)c1` [Entry 181, 3-(1-benzenesulfonyl-1H-indol-3-ylethynyl)-benzoic acid]: 4.00 to 5.00; `O=C(O)c1cccc(C#Cc2cccc(O)c2)c1-c1ccc2c(c1)NCC2` [Entry 238, 3-((3-hydroxyphenyl)ethynyl)-2-(indolin-6-yl)benzoic acid]: 5.00 to 6.00.
Next, `O=C(O)c1cccc(C#Cc2ccc(OC3CCOCC3)cc2)c1-c1ccc2cc[nH]c2c1` [Entry 225, 2-(1H-indol-6-yl)-3-((4-(tetrahydro-2H-pyran-4-yloxy)phenyl)ethynyl)benzoic acid]: above 6.00; `Cc1ccc(C#Cc2cccc(C(=O)O)c2-n2cccc2)cc1` [Entry 44, 3-[2-(4-methylphenyl)ethynyl]-2-(1H-pyrrol-1-yl)benzoic acid]: above 6.00.
Next, `O=C(O)c1cccc(/C=C/c2ccc(F)cc2)c1-n1cccc1` [Entry 146, 3-[(E)-2-(4-fluorophenyl)ethenyl]-2-(1H-pyrrol-1-yl)benzoic acid]: 4.00 to 5.00; `O=C(O)c1cccc(C#Cc2cc(F)cc(F)c2)c1-n1cccc1` [Entry 45, 3-[2-(3,5-difluorophenyl)ethynyl]-2-(1H-pyrrol-1-yl)benzoic acid]: 5.00 to 6.00; `O=C(O)c1cccc(C#CCn2ccnc2)c1-n1cccc1` [Entry 74, 3-[3-(1H-imidazol-1-yl)prop-1-yn-1-yl]-2-(1H-pyrrol-1-yl)benzoic acid]: above 6.00.
In turn, `Cc1ccc(C)n1-c1c(C#Cc2cccc(CO)c2)cccc1C(=O)O` [Entry 195, 2-(2,5-dimethyl-pyrrol-1-yl)-3-(3-hydroxymethyl-phenylethynyl)-benzoic acid] showed a negative logarithm of the IC50 (pIC50) of 4.00 to 5.00.
As for `CN(CC#Cc1cccc(C(=O)O)c1-n1cccc1)Cc1ccccc1` [Entry 73, 3-{3-[benzyl(methyl)amino]prop-1-yn-1-yl}-2-(1H-pyrrol-1-yl)benzoic acid], the figure is above 6.00; as for `O=C(O)c1cccc(C#Cc2ccccc2)c1-c1ccc2cc[nH]c2c1` [Entry 129, 2-(1H-indol-6-yl)-3-(2-phenylethynyl)benzoic acid], above 6.00.
In turn, `O=C(O)c1cccc(C#Cc2ccccc2)c1NCc1ccccc1` [Entry 108, 2-(benzylamino)-3-(phenylethynyl)benzoic acid] gave a negative-log IC50 (pIC50) of 4.00 to 5.00.
Next, `O=C(O)c1cccc(C#Cc2c[nH]c3ncccc23)c1F` [Entry 86, 2-fluoro-3-(2-{1H-pyrrolo[2,3-b]pyridin-3-yl}ethynyl)benzoic acid]: 4.00 to 5.00; `CS(=O)(=O)Nc1cccc(C#Cc2cccc(C(=O)O)c2-n2cccc2)c1` [Entry 3, 3-[2-(3-methanesulfonamidophenyl)ethynyl]-2-(1H-pyrrol-1-yl)benzoic acid]: above 6.00.
Next, `O=C(O)c1cccc(C#Cc2ccn3ncnc3c2)c1-n1cccc1` [Entry 36, 2-(1H-pyrrol-1-yl)-3-(2-{[1,2,4]triazolo[1,5-a]pyridin-7-yl}ethynyl)benzoic acid]: above 6.00; `CC(C)(O)c1cccc(C#Cc2cccc(C(=O)O)c2-n2cccc2)c1` [Entry 31, 3-{2-[3-(2-hydroxypropan-2-yl)phenyl]ethynyl}-2-(1H-pyrrol-1-yl)benzoic acid]: 5.00 to 6.00.
As for `O=C(O)c1cccc(C#Cc2cccc(O)c2)c1-c1ccc2c(c1)OCO2` [Entry 242, 2-(benzo[d][1,3]dioxol-5-yl)-3-((3-hydroxyphenyl)ethynyl)benzoic acid], the figure is 4.00 to 5.00.
The compound `OCc1ccccc1C#Cc1cccc(-c2nnn[nH]2)c1` [Entry 285, {2-[3-(1H-tetrazol-5-yl)-phenylethynyl]-phenyl}-methanol] had a pIC50 of 4.00 to 5.00.
Next, `O=C(O)c1cccc(C#Cc2ccc(C(=O)N3CCNCC3)cc2)c1-c1ccc2cc[nH]c2c1` [Entry 212, 2-(1H-indol-6-yl)-3-[4-(piperazine-1-carbonyl)-phenylethynyl]-benzoic acid]: 5.00 to 6.00; `O=C(O)c1cccc(C#Cc2cccc(O)c2)c1-c1ccc2c(Cl)c[nH]c2c1` [Entry 221, 2-(3-chloro-1H-indol-6-yl)-3-((3-hydroxyphenyl)ethynyl)benzoic acid]: 5.00 to 6.00.
As for `O=C(O)c1cccc(C#Cc2ccc3[nH]cnc3c2)c1-n1cccc1` [Entry 41], the figure is 5.00 to 6.00; as for `O=C(O)c1cccc(C#Cc2ccccc2)c1F` [Entry 85, 2-fluoro-3-(2-phenylethynyl)benzoic acid], 5.00 to 6.00.
Next, `COc1cc(-c2c(C#Cc3cccc(O)c3)cccc2C(=O)O)ccc1N` [Entry 244, 4′-Amino-6-((3-hydroxyphenyl)ethynyl)-5′-methoxybiphenyl-2-carboxylic acid]: 4.00 to 5.00.
As to `Nc1c(C#Cc2c[nH]c3ncccc23)cccc1C(=O)O` [Entry 78], the negative logarithm of the IC50 (pIC50) is above 6.00.
`O=C(O)c1cccc(C#Cc2cnc3[nH]ccc3c2)c1-n1cccc1` [Entry 14, 2-(1H-pyrrol-1-yl)-3-(2-{1H-pyrrolo[2,3-b]pyridin-5-yl}ethynyl)benzoic acid] gave a pIC50 of 5.00 to 6.00.
Next, `Cc1noc(C)c1-c1c(C#Cc2ccncc2)cccc1C(=O)O` [Entry 189, 2-(3,5-dimethyl-isoxazol-4-yl)-3-pyridin-4-ylethynyl-benzoic acid]: 4.00 to 5.00.
Next, `O=C(O)c1cccc(C#Cc2cccc(O)c2)c1-c1cncnc1` [Entry 243, 3-((3-hydroxyphenyl)ethynyl)-2-(pyrimidin-5-yl)benzoic acid]: 4.00 to 5.00; `Cc1nc(C#Cc2cccc(C(=O)O)c2-n2cccc2)cn1C` [Entry 25, 3-[2-(1,2-dimethyl-1H-imidazol-4-yl)ethynyl]-2-(1H-pyrrol-1-yl)benzoic acid]: 4.00 to 5.00.
